According to patent publication US9982011B2, “Legumain activated doxorubicin derivative as well as preparation method and application thereof” (priority 2012, dated 2018):

Tests used:
A549 = test: Efficacy at different doses in human non-small cell lung cancer A549 model; format: in vivo; settings: FIG. 6
Source text: In some examples and many other tumor treatment modes of the present invention, efficacies of Succinyl-AANL-DOX (SEQ ID NO: 2) and EMC-AANL-DOX (SEQ ID NO: 2) were also studied and compared according to the same method as described above. […] Thus, EMC-AANL-DOX (SEQ ID NO: 2) could satisfy our requirements on clinical development.

[1] = Metabolic half-life in mice blood
4T1 cells = test: Efficacy in 4T1 tumor metastasis (lung) model in BALB/C mice; format: in vivo; settings: lung, day 27; i.p. daily for 8 days; S1, S2 10 μmol/kg, doxorubicin hydrochloride 3 μmol/kg
Source text: Test purpose: to investigate the anti-tumor efficacy of S1 and S2 in a tumor metastasis treatment model from BALB/C mice.
Test drug: S1 and S2 injections, and doxorubicin hydrochloride injection, diluted to corresponding concentrations with physiological saline when testing.
1. Animal: BALB/C mice of 6-8 weeks old, all female.
1) 4T1 cells were purchased from American type culture collection (ATCC) and identified according the specification provided by ATCC. Cells were cultivated in DMEM culture medium containing 10% fetal bovine serum at 37° C. and 5% CO2. The cells were passaged for every three days and cells within the 15th passage were used.
2) Production of tumor metastasis. 10^6 […] were subcutaneously injected to the back of the BALB/C mice. Mice were randomly grouped after the tumor grew to about 1.5 cm. The subcutaneous tumor was removed by surgery and drug treatment began. Mice were killed after anesthesia on day 27. The whole lung was taken out and put into Bouin's solution for staining. The number of the tumor metastasized to lung was counted with anatomical microscope.
3) Course of treatment. According to the clinical application of S1 and S2, drugs were intraperitoneally injected. A dose of 10 μmol/kg (<1/10 MTD) was used for the S1 treatment group, 10 μmol/kg (<1/10 MTD) for the S2 treatment group, and 3 μmol/kg (>1/2 MTD) for doxorubicin hydrochloride. The control group was administered with physiological saline. The drugs were administered daily for 8 days.

## COc1cccc2c1C(=O)c1c(O)c3c(c(O)c1C2=O)CC(O)(C(=O)CO)CC3OC1CC(NC(=O)C(CC(C)C)NC(=O)C(CC(N)=O)NC(=O)C(C)NC(=O)C(C)NC(=O)CCCCCN2C(=O)C=CC2=O)C(O)C(C)O1 (stereo not shown) [Example S1, EMC-AANL-Doxorubicin]
A549
  Effect on tumor in A549 model (in words): could completely kill the tumor, with no recurrence of tumor in the later stage of the treatment
[1]
  Metabolic half-life in the mice blood: above 74 hours
4T1 cells
  Inhibitory rate on metastasis: 91.6%
  Number of metastasized tumor: 12 ± 4
